Experimental data from patent publication US9066518B2, “Heterocyclic compounds as pesticides” (Bayer CropScience AG, priority 2009, dated 2015).
Read-outs that look alike come from different tables or passages of the source.

What was measured:
[1] = logP determination (neutral / HCOOH); settings: for chromatographic logP: HCOOH (formic acid)
[2] = test system: green peach aphid (Myzus persicae); test: Myzus test (spray treatment); type: in vivo; settings: foliar, 144 h, read-out: activity (effect in %, aphids killed)
Procedure: Solvents: 78 parts by weight of acetone
• 1.5 parts by weight of dimethylformamide Emulsifier 0.5 part by weight of alkylaryl polyglycol ether
To produce a suitable preparation of active compound, 1 part by weight of active compound is mixed with the stated amounts of solvents and emulsifier, and the concentrate is diluted with emulsifier-containing water to the desired concentration. Discs of leaves of Chinese cabbage (Brassica pekinensis) which are infested by all stages of the green peach aphid (Myzus persicae) are sprayed with an active compound preparation of the desired concentration.
After 6 days, the effect in % is determined. 100% means that all aphids have been killed; 0% means that none of the aphids has been killed.

[3] = application rate 500 g/ha, after 6 days, Chinese cabbage leaf discs

| SMILES | chromatographic logP ([1]; logP (HCOOH), HCOOH) | pest or weed control at 500 g/ha [2, 3] [%] | also measured |
| --- | --- | --- | --- |
| COCC(=O)c1cccc(Br)n1 [1-(6-Bromopyridin-2-yl)-2-methoxyethanone] |  |  | logP ([1]; logP (neutral), neutral): 1.73 |
| CC(=O)c1cccc(-c2cnn(-c3cccnc3)c2)n1 [1-[6-(1-Pyridin-3-yl-1H-pyrazol-4-yl)pyridin-2-yl]ethanone] |  |  | logP ([1]; logP (neutral), neutral): 1.94 |
| c1cnc(-c2cc[nH]n2)nc1 [2-(1H-Pyrazol-3-yl)pyrimidine] | 0.1 |  |  |
| Brc1cccc(-c2ncccn2)n1 [2-(6-Bromopyridin-2-yl)pyrimidine] | 1.3 |  |  |
| NC(=S)c1cccc(-c2cnn(-c3cccnc3)c2)n1 [6-(1-Pyridin-3-yl-1H-pyrazol-4-yl)pyridine-2-carbothioamide] |  |  | logP ([1]; logP (neutral), neutral): 1.77 |
| N=C(N)c1cccc(-c2cnn(-c3cccnc3)c2)n1 [6-(1-Pyridin-3-yl-1H-pyrazol-4-yl)pyridine-2-carboxamidine] |  |  | logP ([1]; logP (neutral), neutral): 1.99 |
| CN(C)/C=C/C(=O)c1cnn(-c2cccnc2)c1 [(2E)-3-(Dimethylamino)-1-[1-(pyridin-3-yl)-1H-pyrazol-4-yl]prop-2-en-1-one] |  |  | logP ([1]; HCOOH, logP (HCOOH)): 0.93 |
| c1cnc(-c2ccn(-c3cnn(-c4cccnc4)c3)n2)nc1 [Example 2, 1′-(Pyridin-3-yl)-3-(pyrimidin-2-yl)-1′H-1,4′-bipyrazole] |  | 100 | logP ([1]; HCOOH, logP (HCOOH)): 1.18 |
| FC(F)(F)c1cccc(-c2cnn(-c3cccnc3)c2)n1 [Example 4, 2-[1-(Pyridin-3-yl)-1H-pyrazol-4-yl]-6-(trifluoromethyl)pyridine] | 2.51 | 100 |  |
| Cn1cnc(-c2cccc(-c3cnn(-c4cccnc4)c3)n2)n1 [Example 6, 2-(1-Methyl-1H-[1,2,4]triazol-3-yl)-6-(1-pyridin-3-yl-1H-pyrazol-4-yl)pyridine] |  | 100 | logP ([1]; logP (neutral), neutral): 1.29 |
| FC(F)(F)c1ccnc(-n2ccc(-c3cnn(-c4cccnc4)c3)n2)n1 [Example 8, 1′-(Pyridin-3-yl)-1-[4-(trifluoromethyl)pyrimidin-2-yl]-1H,1′H-3,4′-bipyrazole] | 2.15 | 90 |  |
| FC(F)(F)C(F)(F)c1nccc(-c2cnn(-c3cccnc3)c2)n1 [Example 9, 2-(Pentafluoroethyl)-4-[1-(pyridin-3-yl)-1H-pyrazol-4-yl]pyrimidine] |  | 100 | logP ([1]; HCOOH, logP (HCOOH)): 2.7 |
| CC1(c2cccc(-c3cnn(-c4cccnc4)c3)n2)OCCO1 [Example 10, 2-(2-Methyl-1,3-dioxolan-2-yl)-6-(1-pyridin-3-yl-1H-pyrazol-4-yl)pyridine] |  |  | pest or weed control at 500 g/ha ([2]; in Brassica rapa): 100%; logP ([1]; logP (neutral), neutral): 1.89 |
| COCC(F)(F)c1cccc(-c2cnn(-c3cccnc3)c2)n1 [Example 11, 2-(1,1-Difluoro-2-methoxyethyl)-6-(1-pyridin-3-yl-1H-pyrazol-4-yl)pyridine] |  | 100 | logP ([1]; logP (neutral), neutral): 2.3 |
| c1cncc(-n2cc(-c3cccc(C4OCCCO4)n3)cn2)c1 [Example 13] | 1.59 | 90 |  |
| Fc1cncc(-n2cc(-c3cccc(-c4ncccn4)n3)cn2)c1 [Example 14] | 1.81 | 90 |  |
| FC(F)(F)c1nccc(-c2cnn(-c3cccnc3)c2)n1 [Example 15] | 2.13 | 100 |  |
| O=C(c1cccc(-c2cnn(-c3cccnc3)c2)n1)N1CCOCC1 [Example 18] | 1.23 | 100 |  |
| c1cncc(-n2cc(-c3cccc(-n4cccn4)n3)cn2)c1 [Example 19] | 2.21 | 100 |  |
| Cc1cc(C)n(-c2cccc(-c3cnn(-c4cccnc4)c3)n2)n1 [Example 21] | 2.64 | 100 |  |
| c1ccc(-c2ccn(-c3cnn(-c4cccnc4)c3)n2)nc1 [Example 23] | 1.19 | 100 |  |

| SMILES | chromatographic logP ([1]; logP (HCOOH), HCOOH) | pest or weed control at 500 g/ha [2, 3] [%] | also measured |
| --- | --- | --- | --- |
| FC(F)(F)COc1cccc(-c2cnn(-c3cccnc3)c2)n1 [Example 25] | 2.96 |  | pest or weed control at 100 g/ha ([2]; application rate 100 g/ha, after 6 days, Chinese cabbage leaf discs): 80% |
| Cc1nn(-c2cccnc2)cc1-n1ccc(C(F)(F)F)n1 [Example 26] | 2.51 | 100 |  |
| COc1ccnc(-n2ccc(-c3cnn(-c4cccnc4)c3)n2)n1 [Example 28] | 1.71 | 100 |  |
| N#Cc1cccc(-c2cnn(-c3cccnc3)c2)n1 [Example 30, 6-(1-Pyridin-3-yl-1H-pyrazol-4-yl)pyridine-2-carbonitrile] |  |  | pest or weed control at 500 g/ha ([2]; in Brassica rapa): 100%; logP ([1]; logP (neutral), neutral): 1.79; logP (neutral) ([1]; neutral): 1.73 |
| Fc1cnc(-n2ccc(-c3cnn(-c4cccnc4)c3)n2)nc1 [Example 31] | 1.52 | 100 |  |
| c1cnc(-n2ccc(-c3cnn(-c4cccnc4)c3)n2)nc1 [Example 33] | 1.33 | 100 |  |
| Ic1cncc(-n2cc(-c3cccc(-c4ncccn4)n3)cn2)c1 [Example 37] | 2.37 | 100 |  |
| FC(F)(F)c1cccc(-n2ccc(-c3cnn(-c4cccnc4)c3)n2)n1 [Example 41] | 3.18 |  |  |
| Clc1cccnc1-n1ccc(-c2cnn(-c3cccnc3)c2)n1 [Example 42] | 1.81 | 100 |  |
| FC(F)(F)c1ccc(-n2ccc(-c3cnn(-c4cccnc4)c3)n2)nc1 [Example 43] | 3.22 | 90 |  |
| COc1cc(OC)nc(-c2nccc(-c3cnn(-c4cccnc4)c3)n2)n1 [Example 44] | 1.56 | 100 |  |
| c1cnc(-c2nccc(-c3cnn(-c4cccnc4)c3)n2)nc1 [Example 46] | 0.86 | 100 |  |
| c1ccc(-c2csc(-c3cnn(-c4cccnc4)c3)n2)nc1 [Example 47] | 1.55 | 100 |  |
| FC(F)CNc1cccc(-c2cnn(-c3cccnc3)c2)n1 [Example 48] | 1.52 | 100 |  |
| FC(F)(F)c1cccc(-c2cnn(-c3cccnc3)c2)c1 [Example 52] | 2.99 |  |  |
| O=C1CCCN1c1cccc(-c2cnn(-c3cccnc3)c2)n1 [Example 80] | 1.86 |  |  |
| O=C1CCCCN1c1cccc(-c2cnn(-c3cccnc3)c2)n1 [Example 81] | 1.59 |  |  |
| Brc1cncc(-n2cc(-c3cccc(-c4ncccn4)n3)cn2)c1 [Example 111] | 2.17 |  |  |
| N=C(NO)c1cccc(-c2cnn(-c3cccnc3)c2)n1 [Example 114] | 0.86 |  |  |
| N=C(NO)c1cccc(-c2cnn(-c3cccnc3)c2)n1 [N-Hydroxy-6-(1-pyridin-3-yl-1H-pyrazol-4-ylpyridine-2-carboxamidine] |  |  | logP ([1]; logP (neutral), neutral): 1.23 |
| CON(C)C(=O)c1cnn(-c2cccnc2)c1 [N-Methoxy-N-methyl-1-(pyridin-3-yl)-1H-pyrazole-4-carboxamide] |  |  | logP ([1]; HCOOH, logP (HCOOH)): 0.91 |

More lines, main results first:

| chromatographic logP ([1]; logP (HCOOH), HCOOH) | SMILES | pest or weed control at 500 g/ha [2, 3] [%] | also measured |
| --- | --- | --- | --- |
| 0.76 | CC(=O)c1cnn(-c2cccnc2)c1 [1-[1-(Pyridin-3-yl)-1H-pyrazol-4-yl]ethanone] |  |  |
| 2.27 | FC(F)(F)c1ccn(-c2cnn(-c3cccnc3)c2)n1 [Example 3, 1′-Pyridin-3-yl-3-trifluoromethyl-1′H-[1,4′]bipyrazolyl] | 100 |  |
| 0.81 | c1ccc(-c2cnn(-c3cccnc3)c2)nc1 [Example 12] | 100 |  |
| 1.24 | CN(C)C(=O)c1cccc(-c2cnn(-c3cccnc3)c2)n1 [Example 17] | 100 |  |
| 2.05 | Clc1cccc(-c2cnn(-c3cccnc3)c2)n1 [Example 20] |  |  |
| 2.18 | Brc1cccc(-c2cnn(-c3cccnc3)c2)n1 [Example 24] | 100 |  |
| 2.87 | CC(C)(C)OC(=O)Nc1cccc(-c2cnn(-c3cccnc3)c2)n1 [Example 27] | 100 |  |
| 2.46 | CC(F)(F)c1cccc(-c2cnn(-c3cccnc3)c2)n1 [Example 29] | 90 |  |
| 2.23 | FC(F)(F)c1ccnc(-c2cnn(-c3cccnc3)c2)n1 [Example 35] | 80 |  |
| 1.5 | c1cncc(-n2cc(-c3cccc(C4OCCO4)n3)cn2)c1 [Example 36] | 100 |  |
| 2.12 | COc1cccc(-c2cnn(-c3cccnc3)c2)n1 [Example 38] | 100 |  |
| 0.39 | c1cncc(-c2cnn(-c3cccnc3)c2)c1 [Example 39] | 100 |  |
| 2.04 | CC(F)(F)c1ccc(-c2cnn(-c3cccnc3)c2)nc1 [Example 40] | 90 |  |
| 1.75 | COC(OC)c1cccc(-c2cnn(-c3cccnc3)c2)n1 [Example 45] | 100 |  |
| 2.12 | COc1ccc(-c2cnn(-c3cccnc3)c2)cc1 [Example 53] |  |  |
| 2.44 | CC1(C)COC(c2cccc(-c3cnn(-c4cccnc4)c3)n2)OC1 [Example 104] |  | logP ([1]; logP (neutral), neutral): 2.55 |
| 0.89 | c1cncc(-n2cc(-c3ccncn3)cn2)c1 [Example 113] |  |  |
| 2.88 | CC1(C)OB(c2cnn(-c3cncc(F)c3)c2)OC1(C)C [VI-2] |  |  |
| 2.1 | CC1(C)OB(c2cnn(-c3cncnc3)c2)OC1(C)C [VI-3] |  |  |
